Data: PubChem BioAssay AID434987 (Southern Research Specialized Biocontainment Screening …, 2010)
Calls of active or inactive are those of the source. No rule for the calls is given here.

Tested on: M. tuberculosis H37Rv growth inhibition with meropenem
Experiment: dose response, H37Rv, with and without meropenem (AID 434987);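 also: growth over 7 days at 37 °C before Alamar Blue read on day 9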
[1] = M. tuberculosis H37Rv growth inhibition, measured here: IC50 without meropenem
[2] = M. tuberculosis H37Rv growth inhibition, measured here: IC90 without meropenem
[3] = measured here: IC90 with meropenem

Cc1cc(F)ccc1NCC(=O)Nc1ccc(Br)cc1C
IC50: 94.2 µM (inactive)
IC50 [1]: 98.2 µM
IC90 [2]: > 100 µM
IC90 [3]: > 100 µM

Cc1nnnn1/C(=C\c1ccccc1)C(=O)OCC(=O)NC1CCCCC1
IC50: 8.62 µM (inactive)
IC50 [1]: 18.1 µM
IC90 [2]: 27 µM
IC90 [3]: 17.6 µM

Cc1ccc(NC(=S)Nc2ncccc2C)c(C)c1
IC50: 46.2 µM (inactive)
IC50 [1]: 97.1 µM
IC90 [2]: > 100 µM
IC90 [3]: > 100 µM

COc1ccc(NC(=O)CSc2nc(N)c(C(=O)Nc3ccc(N(C)C)cc3)s2)cc1
IC50: 22.8 µM
IC50 [1]: > 100 µM
IC90 [2]: > 100 µM
IC90 [3]: > 100 µM

CC(C)Cn1c2c(c(O)c(C(=O)Nc3nccs3)c1=O)CCCC2
IC50: 3.22 µM
IC50 [1]: 45.7 µM
IC90 [2]: 52.4 µM
IC90 [3]: > 100 µM

C[C@H](NC(=O)c1[nH]cnc1C(=O)Nc1ccc(Cl)cc1)C(=O)OC(C)(C)C
IC50: 10.4 µM
IC50 [1]: > 100 µM
IC90 [2]: > 100 µM
IC90 [3]: > 100 µM

CCOc1ccc2nc(NC(=O)c3cnccn3)sc2c1
IC50: 4.07 µM
IC50 [1]: > 100 µM
IC90 [2]: > 100 µM
IC90 [3]: > 100 µM

CC1CC1C(=O)Nc1nc(-c2cccs2)c(-c2cccs2)s1 (stereo not given)
IC50: 94.3 µM (inactive)
IC50 [1]: > 100 µM
IC90 [2]: > 100 µM
IC90 [3]: > 100 µM

CCCCN(CCCC)C(=S)N/N=C/c1c(C)[nH]n(-c2ccccc2)c1=O
IC50: > 100 µM (inactive)
IC50 [1]: > 100 µM
IC90 [2]: > 100 µM
IC90 [3]: > 100 µM

COC(=O)c1c(C)n(-c2ccc(C)cc2)c2ccc(O)cc12
IC50: > 100 µM (inactive)
IC50 [1]: > 100 µM
IC90 [2]: > 100 µM
IC90 [3]: > 100 µM

C[C@H]1C=CC(=O)O[C@H]1c1ccccc1
IC50: 21 µM (inactive)
IC50 [1]: 43.7 µM
IC90 [2]: 60.6 µM
IC90 [3]: 49.5 µM

CCCCNC(=O)c1onc(CSc2ccc(OC)cc2)c1C(=O)O
IC50: 23.9 µM (inactive)
IC50 [1]: 46.4 µM
IC90 [2]: 53.1 µM
IC90 [3]: 27.2 µM

COc1ccccc1/C=C/C(=O)NCC(=O)N/N=C/c1cc(Br)ccc1OC
IC50: 24 µM
IC50 [1]: > 100 µM
IC90 [2]: > 100 µM
IC90 [3]: > 100 µM

CC(=O)Nc1nonc1-c1nc2ccccc2n1CCC(C)C
IC50: > 100 µM (inactive)
IC50 [1]: > 100 µM
IC90 [2]: > 100 µM
IC90 [3]: > 100 µM

Cc1ccc(NC(=O)O/N=C/c2c(C)nn(C(C)(C)C)c2C)cc1Cl
IC50: > 100 µM (inactive)
IC50 [1]: > 100 µM
IC90 [2]: > 100 µM
IC90 [3]: > 100 µM

Cc1ccccc1/C=N\NC(=O)c1csnn1
IC50: 21.6 µM
IC50 [1]: > 100 µM
IC90 [2]: > 100 µM
IC90 [3]: > 100 µM

Cc1ccnn1CC(=O)N/N=C/c1ccc([N+](=O)[O-])s1
IC50: 91.5 µM (inactive)
IC50 [1]: 88.5 µM
IC90 [2]: 95.9 µM
IC90 [3]: > 100 µM

CC(C)(C)[C@@H]1C=C(C(=O)Nc2ccccc2)O[C@H](OCc2ccc(CO)cc2)C1
IC50: 75 µM (inactive)
IC50 [1]: 93.1 µM
IC90 [2]: > 100 µM
IC90 [3]: > 100 µM

Cc1ccc2c(c1)CCCN2C(=O)c1cc2ccccc2oc1=O
IC50: 22.9 µM
IC50 [1]: > 100 µM
IC90 [2]: > 100 µM
IC90 [3]: > 25 µM

CCOC(=O)c1cnc2cc(-c3ccc(C(C)(C)C)cc3)nn2c1N
IC50: 0.899 µM
IC50 [1]: 12.1 µM
IC90 [2]: > 100 µM
IC90 [3]: 5.74 µM

CCC1(CC)Cc2ccccc2C(N)=C1C#N
IC50: > 100 µM (inactive)
IC50 [1]: > 100 µM
IC90 [2]: > 100 µM
IC90 [3]: > 100 µM

Cc1n[nH]c(C)c1CCCOc1ccccc1
IC50: 24.1 µM (inactive)
IC50 [1]: 39.5 µM
IC90 [2]: > 100 µM
IC90 [3]: > 100 µM

C#CCOc1c(Cl)cc(/C=N/NC(N)=S)cc1OCC
IC50: 87.6 µM (inactive)
IC50 [1]: > 100 µM
IC90 [2]: > 100 µM
IC90 [3]: > 100 µM

CSc1ccc(/C=C/C(=O)NC23CC4CC(CC(C4)C2)C3)cc1
IC50: 5.06 µM
IC50 [1]: 27.2 µM
IC90 [2]: > 100 µM
IC90 [3]: 16.1 µM

Cn1ccnc1C(=O)Cc1ccc([N+](=O)[O-])cc1
IC50: 7.78 µM
IC50 [1]: 44.1 µM
IC90 [2]: 48.9 µM
IC90 [3]: 22.6 µM

O=C(NCc1ccco1)c1cc2n(n1)C(C(F)(F)F)CC(c1ccc(F)cc1)N2 (stereo not given)
IC50: > 100 µM (inactive)
IC50 [1]: > 100 µM
IC90 [2]: > 100 µM
IC90 [3]: > 100 µM

COc1c(NC(C)=O)c2ccccc2c2ccccc12
IC50: > 100 µM (inactive)
IC50 [1]: > 100 µM
IC90 [2]: > 100 µM
IC90 [3]: > 100 µM

NNC(=S)NC1CC2CC1C1C=CCC21 (stereo not given)
IC50: 12.4 µM (inactive)
IC50 [1]: 21.1 µM
IC90 [2]: 23.9 µM
IC90 [3]: 13.5 µM

CC(C)CC(=O)N1CCN(c2ccc([N+](=O)[O-])c(NCc3ccccc3)c2)CC1
IC50: 44.9 µM (inactive)
IC50 [1]: 46.7 µM
IC90 [2]: 51.5 µM
IC90 [3]: 48.6 µM

Cc1ccc(C)c(SCc2noc(C(=O)NCC3CCCO3)c2C(=O)O)c1 (stereo not given)
IC50: 44.3 µM (inactive)
IC50 [1]: 50.7 µM
IC90 [2]: > 100 µM
IC90 [3]: 48 µM

COc1ccc(C(=O)Nc2nc3ccc(OC)cc3s2)cc1
IC50: 21.2 µM
IC50 [1]: 65.1 µM
IC90 [2]: > 100 µM
IC90 [3]: > 100 µM

CCOC(=O)C1CSC(CC(=O)Nc2ccc(Cl)c(Cl)c2)C(=O)N1 (stereo not given)
IC50: 10.8 µM
IC50 [1]: 47.7 µM
IC90 [2]: 54.3 µM
IC90 [3]: 35.4 µM

Cn1c(=O)[nH]c(=O)c2c1nc(Br)n2CCC(=O)c1ccccc1
IC50: 38.6 µM
IC50 [1]: > 100 µM
IC90 [2]: > 100 µM
IC90 [3]: > 50 µM

O=C(O)C1CC(=O)N(c2ccc(OCc3ccccc3Cl)cc2)C1 (stereo not given)
IC50: 14.2 µM
IC50 [1]: 41.6 µM
IC90 [2]: > 100 µM
IC90 [3]: > 100 µM

Cc1ccc(C)c(NC(=O)C2Cc3ccccc3CN2C(=O)OCc2ccccc2)c1 (stereo not given)
IC50: 71.3 µM (inactive)
IC50 [1]: 91.3 µM
IC90 [2]: > 100 µM
IC90 [3]: > 100 µM

Cc1c(C(=O)NC(=S)Nc2ccccc2N2CCCC2)cccc1[N+](=O)[O-]
IC50: 63.5 µM (inactive)
IC50 [1]: 82.6 µM
IC90 [2]: > 100 µM
IC90 [3]: > 100 µM

Cc1cccc(Nc2nnc(SCC(=O)Nc3ncc(C(F)(F)F)cc3Cl)s2)c1C
IC50: 7.31 µM (inactive)
IC50 [1]: 13.4 µM
IC90 [2]: > 100 µM
IC90 [3]: 21.5 µM

S=c1nccc(-c2ccc3c(c2)CCO3)[nH]1
IC50: > 100 µM (inactive)
IC50 [1]: > 100 µM
IC90 [2]: > 100 µM
IC90 [3]: > 100 µM

COc1ccc(-c2cc3cc(OC)c(OC)cc3c(C)n2)cc1
IC50: > 100 µM (inactive)
IC50 [1]: > 100 µM
IC90 [2]: > 100 µM
IC90 [3]: > 100 µM

CCOC(=O)C1CCCN(c2ccc(NC(=O)c3snc4c(=O)[nH]cnc34)cc2)C1 (stereo not given)
IC50: 12.7 µM
IC50 [1]: 59.4 µM
IC90 [2]: > 100 µM
IC90 [3]: > 100 µM

COc1cc(C(=O)NNC(=O)c2cc(-c3ccccc3)n[nH]2)cc(OC)c1C
IC50: 19.7 µM
IC50 [1]: > 100 µM
IC90 [2]: > 100 µM
IC90 [3]: > 50 µM

O=C1N=C(N2CCCC2)S/C1=C\c1cccc(Br)c1
IC50: 30.9 µM (inactive)
IC50 [1]: 55 µM
IC90 [2]: > 100 µM
IC90 [3]: > 100 µM

Cc1cc(NC(=O)CSc2ncnc3c2cnn3-c2ccccc2)no1
IC50: > 100 µM (inactive)
IC50 [1]: > 100 µM
IC90 [2]: > 100 µM
IC90 [3]: > 100 µM

COc1ccc(NC(=O)C(Cc2ccccc2)n2cccc2)c(OC)c1 (stereo not given)
IC50: 13.6 µM
IC50 [1]: 47.5 µM
IC90 [2]: > 100 µM
IC90 [3]: > 100 µM

c1ccc(-c2cc(N3CCOCC3)nc3ccccc23)cc1
IC50: 2.78 µM
IC50 [1]: > 100 µM
IC90 [2]: > 100 µM
IC90 [3]: 91.5 µM

O=C(NNC(=O)c1ccc(Oc2cc(Cl)cc(Cl)c2)o1)c1ccccc1
IC50: > 100 µM (inactive)
IC50 [1]: > 100 µM
IC90 [2]: > 100 µM
IC90 [3]: > 100 µM

COc1cccc(/C=N/NC(N)=S)c1OS(=O)(=O)c1ccccc1
IC50: 19.2 µM
IC50 [1]: > 100 µM
IC90 [2]: > 100 µM
IC90 [3]: > 25 µM

O=C(COc1ccc(Cl)cc1)OCC(=O)N1CCCCCC1
IC50: 45.5 µM (inactive)
IC50 [1]: > 100 µM
IC90 [2]: > 100 µM
IC90 [3]: > 100 µM

NNC(=O)c1cccc(O)c1
IC50: 9.97 µM
IC50 [1]: 79.5 µM
IC90 [2]: > 100 µM
IC90 [3]: 73.9 µM

CN(C)S(=O)(=O)n1cc(/C=C(\NC(=O)c2ccccc2)C(=O)NCCN2CCOCC2)c2ccccc21
IC50: > 100 µM (inactive)
IC50 [1]: > 100 µM
IC90 [2]: > 100 µM
IC90 [3]: > 100 µM

CCn1cc(C(=O)O)c(=O)c2cc(F)c(N/N=C/c3ccccc3)cc21
IC50: 22.8 µM (inactive)
IC50 [1]: 36.5 µM
IC90 [2]: > 100 µM
IC90 [3]: > 100 µM

CC(/C=N/NC(=O)c1cc(C(C)(C)C)[nH]n1)=C\c1ccccc1
IC50: > 100 µM (inactive)
IC50 [1]: > 100 µM
IC90 [2]: > 100 µM
IC90 [3]: > 100 µM

CC(/C=N/NC(=O)c1cc(-c2cccs2)[nH]n1)=C\c1ccccc1
IC50: > 100 µM (inactive)
IC50 [1]: > 100 µM
IC90 [2]: > 100 µM
IC90 [3]: > 100 µM

CC(=O)Nc1scc(C)c1-c1nc2ccccc2s1
IC50: > 100 µM (inactive)
IC50 [1]: > 100 µM
IC90 [2]: > 100 µM
IC90 [3]: > 100 µM

Cc1cc(=S)nc(-c2ccccn2)[nH]1
IC50: 13.1 µM
IC50 [1]: 48.3 µM
IC90 [2]: 50.4 µM
IC90 [3]: 19.7 µM

COc1ccc(OC)c(-c2cc(C(=O)Nc3c(C)n(C)n(-c4ccccc4)c3=O)no2)c1
IC50: 17.1 µM
IC50 [1]: 54 µM
IC90 [2]: > 100 µM
IC90 [3]: 49.5 µM

CCOC(=O)N1CCN(C(=O)CSc2nnc(COc3ccccc3)o2)CC1
IC50: 7.33 µM
IC50 [1]: 21.5 µM
IC90 [2]: 72.9 µM
IC90 [3]: 18.4 µM

O=C(/C=C/c1ccccn1)c1cc(Br)ccc1O
IC50: 21.8 µM (inactive)
IC50 [1]: 37.4 µM
IC90 [2]: 58.6 µM
IC90 [3]: 45.1 µM

COCCNC(C(=O)Nc1ccc(C)cc1[N+](=O)[O-])c1ccccc1 (stereo not given)
IC50: 17.2 µM
IC50 [1]: 49.1 µM
IC90 [2]: > 100 µM
IC90 [3]: > 100 µM

COC(=O)c1cc(C)[nH]c2c(C)cc3nc4ccccc4c3c12
IC50: > 100 µM (inactive)
IC50 [1]: > 100 µM
IC90 [2]: > 100 µM
IC90 [3]: > 100 µM
